Each molecule was assayed on P2 membranes from rat forebrain (3H-TCP binding) (assay: 3H-TCP binding assay (displacement of 3H-TCP from P2 membranes from rat forebrain)). Conditions: activity ratio (+)-enantiomer vs (-)-enantiomer.
Method: P2 membranes from rat forebrain were suspended in 5 mM tris(hydroxymethyl)aminomethane hydrochloride buffer (pH 7.4). A solution of the test compound in H2 O or DMSO/H2 O was added followed by a solution of ^3 H-TCP The mixture was incubated for 20 minutes at 30° C. and then injected onto a glass fiber filter. The filters were washed with cold buffer and placed in vials for subsequent liquid scintillation spectrometry. IC50 were calculated from the amount of tritium label retained on the filters.

SMILES	times as active as the (-)-enantiomer in the 3H-TCP binding assay
CC12NC(CCc3ccsc31)c1ccccc12 (single isomer, unassigned; (+)) [(+)-enantiomer, (+)-11-methyl-4,5,6,11-tetrahydrobenzo[6,7]cycloocta[1,2-b]-thiophen-6,11-imine]	approximately eight

Same assay, conditions: rat forebrain P2 membranes, pH 7.4, 20 minutes at 30° C.; upper bound stated for the group in micromolar

SMILES	IC50
CC12NC(CCc3cc(Br)sc31)c1ccccc12 (stereo not drawn) [15 (free amine), 2-bromo-11-methyl-4,5,6,11-tetrahydrobenzo[6,7]cycloocta[1,2-b]thiophen-6,11-imine]	≤ 2000 nM
CC12NC(CCc3cc(Cl)sc31)c1ccccc12 (stereo not drawn) [Example 16, 2-Chloro-11-methyl-4,5,6,11-tetrahydrobenzo[6,7]-cycloocta[1,2-b]thiophen-6,11-imine]	≤ 2000 nM
CC12NC(C=Cc3ccsc31)c1ccccc12 (stereo not drawn) [Example 18, 11-Methyl-6,11-dihydrobenzo[6,7]cycloocta[1,2-b]thiophen-6,11-imine]	≤ 2000 nM
CSc1cc2c(s1)C1(C)NC(CC2)c2ccccc21 (stereo not drawn) [Example 14, 2-Methylthio-11-methyl-4,5,6,11-tetrahydrobenzo[6,7]-cycloocta[1,2-b]thiophen-6,11-imine]	≤ 2000 nM
c1ccc2c(c1)C1CCc3ccsc3C2N1 (stereo not drawn) [Example 4, 4,5,6,11-Tetrahydrobenzo[6,7]cycloocta[1,2-b]thiophen-6,11-imine]	≤ 2000 nM

Same assay, conditions: rat forebrain P2 membranes, pH 7.4, 20 minutes at 30° C.; upper bound stated for the group in nanomolar

SMILES	IC50
CC12NC(CCc3ccsc31)c1cc(F)ccc12 (stereo not drawn) [Example 22, 8-Fluoro-11-methyl-4,5,6,11-tetrahydrobenzo[6,7]-cycloocta[1,2-b]thiophen-6,11-imine]	≤ 40 nM
CC12NC(CCc3ccsc31)c1ccccc12 (stereo not drawn) [Example 9, 11-Methyl-4,5,6,11-tetrahydrobenzo[6,7]cycloocta-[1,2-b]thiophen-6,11-imine]	≤ 40 nM
Cc1ccc2c(c1)C1CCc3ccsc3C2(C)N1 (stereo not drawn) [Example 26, 8.11-Dimethyl-4,5,6,11-tetrahydrobenzo[6,7]cycloocta-[1,2-b]thiophen-6,11-imine]	≤ 40 nM
